Data taken from US6737383B1, “Herbicidal oxadiazolidines” (priority 1999, dated 2004).

Columns and labels:
wild oat = experiment: Test B pre/postemergence wild oat; format: in vivo, Avena fatua
Outline: (§1)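 Herbicidal effect was estimated by eye on a ten-point control scale after plants spent twelve to sixteen days in a greenhouse following soil or foliar treatment. Foliar sprays targeted plants at one to four leaves; all doses were formulated in a non-phytotoxic solvent with surfactant.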

soybean = experiment: Test B pre/postemergence soybean; format: in vivo, Glycine max
Outline: as §1

purple nutsedge = experiment: Test B pre/postemergence purple nutsedge; format: in vivo, Cyperus rotundus
Outline: as §1

corn = experiment: Test B pre/postemergence corn; format: in vivo, Zea mays
Outline: as §1

blackgrass = experiment: Test B pre/postemergence blackgrass; format: in vivo, Alopecurus myosuroides
Outline: as §1

smallflower flatsedge = experiment: Test B flood test smallflower flatsedge; format: in vivo, Cyperus difformis
Outline: (§2)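 Flood test on plants grown to the 2-leaf stage; treated plants kept in greenhouse twelve to sixteen days, then visually rated against controls on a 0 (no effect) to 10 (complete control) scale.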

rice = experiment: Test B flood test rice; format: in vivo, Oryza sativa
Outline: as §2

morningglory = experiment: Test B pre/postemergence morningglory; format: in vivo, Ipomoea hederacea
Outline: as §1

velvetleaf = experiment: Test B pre/postemergence velvetleaf; format: in vivo, Abutilon theophrasti
Outline: as §1

bedstraw = experiment: Test B pre/postemergence bedstraw; format: in vivo, Galium aparine; conditions: Preemergence
Outline: as §1

surinam grass = experiment: Test B pre/postemergence surinam grass; format: in vivo, Brachiaria decumbens; conditions: Postemergence
Outline: as §1

[1] = Postemergence, Rate 125 g/ha, scale of 0 to 10 where 0 is no effect and 10 is complete control
[2] = Postemergence, Rate 250 g/ha, scale of 0 to 10, 0 is no effect, 10 is complete control
[3] = Postemergence, Rate 500 g/ha, scale of 0 to 10 where 0 is no effect and 10 is complete control
[4] = Preemergence, Rate 62 g/ha, scale 0 to 10 (0 no effect, 10 complete control)
[5] = Preemergence, Rate 125 g/ha, scale of 0 to 10 where 0 is no effect and 10 is complete control
[6] = Preemergence, Rate 500 g/ha, scale of 0 to 10 where 0 is no effect and 10 is complete control
[7] = Postemergence, Rate 62 g/ha, scale of 0 to 10, 0 is no effect, 10 is complete control
[8] = Rate 62 g/ha, flood test species, Pre-emergence, visual evaluation after twelve to sixteen days
[9] = Rate 125 g/ha, under heading Pre-emergence, flood test species, visual evaluation after twelve to sixteen days
[10] = Rate 250 g/ha, Pre-emergence (flood test species), scale 0 to 10, 0 is no effect, 10 is complete control
[11] = Rate 500 g/ha, Pre-emergence section of Table B, 0 to 10 scale (0 no effect, 10 complete control)
[12] = Rate 125 g/ha, scale of 0 to 10 where 0 is no effect and 10 is complete control

Compound: COC(C)n1c(=O)on(C(=O)N(c2ccc(Cl)cc2)C(C)C)c1=O (stereo not drawn) [Compound 592]
- Plant response rating, Wild oats (wild oat; [1]): 0
- Wild oats plant response rating (wild oat; [2]): 0
- Plant response rating, Wild oats (wild oat; [3]): 0
- Wild oats plant response rating (wild oat; [4]): 0
- Wild oats plant response rating (wild oat; [5]): 0
- Plant response rating, Wild oats (wild oat; [6]): 0
- Plant response rating, Soybean (soybean; [1]): 1
- Soybean plant response rating (soybean; [2]): 1
- Plant response rating, Soybean (soybean; [3]): 1
- Soybean plant response rating (soybean; [4]): 0
- Soybean plant response rating (soybean; [5]): 0
- Plant response rating, Soybean (soybean; [6]): 0
- Nutsedge plant response rating (purple nutsedge; [7]): 0
- Plant response rating, Nutsedge (purple nutsedge; [1]): 0
- Nutsedge plant response rating (purple nutsedge; [2]): 0
- Plant response rating, Nutsedge (purple nutsedge; [3]): 0
- Nutsedge plant response rating (purple nutsedge; [4]): 0
- Nutsedge plant response rating (purple nutsedge; [5]): 0
- Plant response rating, Nutsedge (purple nutsedge; [6]): 0
- Corn plant response rating (corn; [7]): 0
- Plant response rating, Corn (corn; [1]): 0
- Corn plant response rating (corn; [2]): 0
- Plant response rating, Corn (corn; [3]): 0
- Corn plant response rating (corn; [4]): 0
- Corn plant response rating (corn; [5]): 0
- Corn plant response rating (0 to 10 scale) (corn; Preemergence, Rate 250 g/ha): 0
- Plant response rating, Corn (corn; [6]): 0
- Blackgrass plant response rating (blackgrass; [7]): 0
- Plant response rating, Blackgrass (blackgrass; [1]): 0
- Blackgrass plant response rating (blackgrass; [2]): 0
- Plant response rating, Blackgrass (blackgrass; [3]): 0
- Blackgrass plant response rating (blackgrass; [4]): 0
- Blackgrass plant response rating (blackgrass; [5]): 0
- Blackgrass plant response rating (0 to 10 scale) (blackgrass; Preemergence, Rate 250 g/ha): 0
- Blackgrass plant response rating (blackgrass; [6]): 0
- Plant response rating, S. Flatsedge (0 to 10 scale, 0 is no effect, 10 is complete control) (smallflower flatsedge; [8]): 0
- S. Flatsedge plant response rating (0 to 10 scale, 0 is no effect, 10 is complete control) (smallflower flatsedge; [9]): 0
- S. Flatsedge plant response rating (smallflower flatsedge; [10]): 0
- S. Flatsedge plant response rating (smallflower flatsedge; [11]): 0
- Plant response rating, Rice (0 to 10 scale, 0 is no effect, 10 is complete control) (rice; [8]): 0
- Rice plant response rating (0 to 10 scale, 0 is no effect, 10 is complete control) (rice; [9]): 0
- Rice plant response rating (rice; [10]): 0
- Rice plant response rating (rice; [11]): 0
- Morningglory plant response rating (morningglory; [7]): 1
- Plant response rating, Morningglory (morningglory; [1]): 1
- Morningglory plant response rating (morningglory; [2]): 2
- Plant response rating, Morningglory (morningglory; [3]): 2
- Morningglory plant response rating (morningglory; [4]): 0
- Morningglory plant response rating (morningglory; [5]): 0
- Plant response rating, Morningglory (morningglory; [6]): 0
- Plant response rating, Velvetleaf (velvetleaf; [1]): 0
- Velvetleaf plant response rating (velvetleaf; [2]): 0
- Plant response rating, Velvetleaf (velvetleaf; [3]): 0
- Velvetleaf plant response rating (velvetleaf; [4]): 0
- Velvetleaf plant response rating (velvetleaf; [5]): 0
- Plant response rating, Velvetleaf (velvetleaf; [6]): 0
- Bedstraw plant response rating (bedstraw; Rate 62 g/ha, scale 0 to 10 (0 no effect, 10 complete control)): 0
- Bedstraw plant response rating (bedstraw; [12]): 0
- B. signalgrass plant response rating (surinam grass; Rate 62 g/ha, scale of 0 to 10, 0 is no effect, 10 is complete control): 0
- Plant response rating, B. signalgrass (surinam grass; [12]): 0
